Measured values reported in ChEMBL document CHEMBL3046822, “Synthesis, antiplatelet aggregation activity, and molecular modeling study of novel substituted-piperazine analogues” (2011).
The source made the active and inactive calls. The rule behind the calls is not given here.

Legend:
[1] = Antiaggregating activity in Homo sapiens (human) platelet rich plasma assessed as collagen-induced platelet aggregation at 2.5 uM incubated for 4 min prior to collagen-induction measured for 5.5 min by turbidometric analysis (reference value: 50 to 98%); assay type: functional
[2] = Antiaggregating activity in Homo sapiens (human) platelet rich plasma assessed as collagen-induced platelet aggregation at 1 uM incubated for 4 min prior to collagen-induction measured for 5.5 min by turbidometric analysis (reference value: 50 to 98%); assay type: functional
[3] = Antiaggregating activity in Homo sapiens (human) platelet rich plasma assessed as adrenaline-induced platelet aggregation at 2.5 uM incubated for 4 min prior to adrenaline-induction measured for 5.5 min by turbidometric analysis (reference value: 65 to 100%); assay type: functional
Platelet [4] = assay: Antiaggregating activity in Homo sapiens (human) platelet rich plasma assessed as inhibition of ristocetin-induced platelet aggregation at 2.5 uM incubated for 4 min prior to ristocetin-induction measured for 5.5 min by turbidometric analysis; assay type: functional, cell-free
[5] = Antiaggregating activity in Homo sapiens (human) platelet rich plasma assessed as arachidonic acid-induced platelet aggregation at 0.6 uM incubated for 4 min prior to arachidonic acid-induction measured for 5.5 min by turbidometric analysis (reference value: 55 to 100%); assay type: functional
[6] = Antiaggregating activity in Homo sapiens (human) platelet rich plasma assessed as ADP-induced platelet aggregation at 1 uM incubated for 4 min prior to ADP-induction measured for 5.5 min by turbidometric analysis (reference value: 54 to 88%); assay type: functional
[7] = Antiaggregating activity in Homo sapiens (human) platelet rich plasma assessed as adrenaline-induced platelet aggregation at 1 uM incubated for 4 min prior to adrenaline-induction measured for 5.5 min by turbidometric analysis (reference value: 65 to 100%); assay type: functional
[8] = Antiaggregating activity in Homo sapiens (human) platelet rich plasma assessed as ristocetin-induced platelet aggregation at 1 uM incubated for 4 min prior to ristocetin-induction measured for 5.5 min by turbidometric analysis (reference value: 65 to 99%); assay type: functional
[9] = Antiaggregating activity in Homo sapiens (human) platelet rich plasma assessed as arachidonic acid-induced platelet aggregation at 1 uM incubated for 4 min prior to arachidonic acid-induction measured for 5.5 min by turbidometric analysis (reference value: 55 to 100%); assay type: functional
[10] = Antiaggregating activity in Homo sapiens (human) platelet rich plasma assessed as ADP-induced platelet aggregation at 2.5 uM incubated for 4 min prior to ADP-induction measured for 5.5 min by turbidometric analysis (reference value: 54 to 88%); assay type: functional
Platelet [11] = assay: Antiaggregating activity in Homo sapiens (human) platelet rich plasma assessed as inhibition of arachidonic acid-induced platelet aggregation at 3 uM incubated for 4 min prior to arachidonic acid-induction measured for 5.5 min by turbidometric analysis; assay type: functional, cell-free
[12] = Antiaggregating activity in Homo sapiens (human) platelet rich plasma assessed as disaggregation of arachidonic acid-induced platelet aggregation at 0.06 uM incubated for 4 min prior to arachidonic acid-induction measured for 5.5 min by turbidometric analysis relative to control; assay type: functional
[13] = Antiaggregating activity in Homo sapiens (human) platelet rich plasma assessed as ADP-induced platelet aggregation at 0.6 uM incubated for 4 min prior to ADP-induction measured for 5.5 min by turbidometric analysis (reference value: 54 to 88%); assay type: functional
Platelet [14] = assay: Antiaggregating activity in Homo sapiens (human) platelet rich plasma assessed as inhibition of ristocetin-induced platelet aggregation at 3 uM incubated for 4 min prior to ristocetin-induction measured for 5.5 min by turbidometric analysis; assay type: functional, cell-free
[15] = Antiaggregating activity in Homo sapiens (human) platelet rich plasma assessed as collagen-induced platelet aggregation at 0.6 uM incubated for 4 min prior to collagen-induction measured for 5.5 min by turbidometric analysis (reference value: 50 to 98%); assay type: functional
Platelet [16] = assay: Antiaggregating activity in Homo sapiens (human) platelet rich plasma assessed as inhibition of adrenaline-induced platelet aggregation at 3 uM incubated for 4 min prior to adrenaline-induction measured for 5.5 min by turbidometric analysis; assay type: functional, cell-free
Platelet [17] = assay: Antiaggregating activity in Homo sapiens (human) platelet rich plasma assessed as inhibition of adrenaline-induced platelet aggregation at 1 uM incubated for 4 min prior to adrenaline-induction measured for 5.5 min by turbidometric analysis; assay type: functional, cell-free
Platelet [18] = assay: Antiaggregating activity in Homo sapiens (human) platelet rich plasma assessed as inhibition of collagen-induced platelet aggregation at 3 uM incubated for 4 min prior to collagen-induction measured for 5.5 min by turbidometric analysis; assay type: functional, cell-free
[19] = Antiaggregating activity in Homo sapiens (human) platelet rich plasma assessed as ristocetin-induced platelet aggregation at 0.6 uM incubated for 4 min prior to ristocetin-induction measured for 5.5 min by turbidometric analysis (reference value: 65 to 99%); assay type: functional
Platelet [20] = assay: Antiaggregating activity in Homo sapiens (human) platelet rich plasma assessed as inhibition of adrenaline-induced platelet aggregation at 0.6 uM incubated for 4 min prior to adrenaline-induction measured for 5.5 min by turbidometric analysis; assay type: functional, cell-free
Platelet [21] = assay: Antiaggregating activity in Homo sapiens (human) platelet rich plasma assessed as inhibition of arachidonic acid-induced platelet aggregation at 1 uM incubated for 4 min prior to arachidonic acid-induction measured for 5.5 min by turbidometric analysis; assay type: functional, cell-free
Platelet [22] = assay: Antiaggregating activity in Homo sapiens (human) platelet rich plasma assessed as inhibition of ADP-induced platelet aggregation at 3 uM incubated for 4 min prior to ADP-induction measured for 5.5 min by turbidometric analysis; assay type: functional, cell-free
Platelet [23] = assay: Antiaggregating activity in Homo sapiens (human) platelet rich plasma assessed as inhibition of adrenaline-induced platelet aggregation at 0.4 uM incubated for 4 min prior to adrenaline-induction measured for 5.5 min by turbidometric analysis; assay type: functional, cell-free
[24] = Antiaggregating activity in human platelet rich plasma assessed as disaggregation of ristocetin-induced platelet aggregation at 1 uM incubated for 4 min prior to ristocetin-induction measured for 5.5 min by turbidometric analysis relative to control; assay type: functional
Platelet [25] = assay: Antiaggregating activity in Homo sapiens (human) platelet rich plasma assessed as inhibition of collagen-induced platelet aggregation at 0.5 uM incubated for 4 min prior to collagen-induction measured for 5.5 min by turbidometric analysis; assay type: functional, cell-free
Platelet [26] = assay: Antiaggregating activity in Homo sapiens (human) platelet rich plasma assessed as inhibition of arachidonic acid-induced platelet aggregation at 0.5 uM incubated for 4 min prior to arachidonic acid-induction measured for 5.5 min by turbidometric analysis; assay type: functional
Platelet [27] = assay: Antiaggregating activity in Homo sapiens (human) platelet rich plasma assessed as inhibition of collagen-induced platelet aggregation at 1 uM incubated for 4 min prior to collagen-induction measured for 5.5 min by turbidometric analysis; assay type: functional, cell-free
Platelet [28] = assay: Antiaggregating activity in Homo sapiens (human) platelet rich plasma assessed as inhibition of arachidonic acid-induced platelet aggregation at 0.4 uM incubated for 4 min prior to arachidonic acid-induction measured for 5.5 min by turbidometric analysis; assay type: functional, cell-free
Platelet [29] = assay: Antiaggregating activity in Homo sapiens (human) platelet rich plasma assessed as inhibition of ADP-induced platelet aggregation at 0.4 uM incubated for 4 min prior to ADP-induction measured for 5.5 min by turbidometric analysis; assay type: functional, cell-free
[30] = Antiaggregating activity in Homo sapiens (human) platelet rich plasma assessed as ristocetin-induced platelet aggregation at 0.4 uM incubated for 4 min prior to ristocetin-induction measured for 5.5 min by turbidometric analysis (reference value: 65 to 99%); assay type: functional
[31] = Antiaggregating activity in Homo sapiens (human) platelet rich plasma assessed as ristocetin-induced platelet aggregation at 0.5 uM incubated for 4 min prior to ristocetin-induction measured for 5.5 min by turbidometric analysis (reference value: 65 to 99%); assay type: functional
Platelet [32] = assay: Antiaggregating activity in Homo sapiens (human) platelet rich plasma assessed as inhibition of collagen-induced platelet aggregation at 0.4 uM incubated for 4 min prior to collagen-induction measured for 5.5 min by turbidometric analysis; assay type: functional, cell-free
Platelet [33] = assay: Antiaggregating activity in Homo sapiens (human) platelet rich plasma assessed as inhibition of ADP-induced platelet aggregation at 0.5 uM incubated for 4 min prior to ADP-induction measured for 5.5 min by turbidometric analysis; assay type: functional, cell-free
Platelet [34] = assay: Antiaggregating activity in Homo sapiens (human) platelet rich plasma assessed as inhibition of adrenaline-induced platelet aggregation at 0.5 uM incubated for 4 min prior to adrenaline-induction measured for 5.5 min by turbidometric analysis; assay type: functional, cell-free
Platelet [35] = assay: Antiaggregating activity in Homo sapiens (human) platelet rich plasma assessed as inhibition of ADP-induced platelet aggregation at 1 uM incubated for 4 min prior to ADP-induction measured for 5.5 min by turbidometric analysis; assay type: functional, cell-free
[36] = Antiaggregating activity in Homo sapiens (human) platelet rich plasma assessed as disaggregation of ADP-induced platelet aggregation at 4 uM incubated for 4 min prior to ADP-induction measured for 5.5 min by turbidometric analysis relative to control; assay type: functional
[37] = Antiaggregating activity in Homo sapiens (human) platelet rich plasma assessed as disaggregation of ADP-induced platelet aggregation at 5 uM incubated for 4 min prior to ADP-induction measured for 5.5 min by turbidometric analysis relative to control; assay type: functional
Platelet [38] = assay: Antiaggregating activity in Homo sapiens (human) platelet rich plasma assessed as inhibition of adrenaline-induced platelet aggregation at 5 uM incubated for 4 min prior to adrenaline-induction measured for 5.5 min by turbidometric analysis; assay type: functional, cell-free
Platelet [39] = assay: Antiaggregating activity in Homo sapiens (human) platelet rich plasma assessed as inhibition of arachidonic acid-induced platelet aggregation at 5 uM incubated for 4 min prior to arachidonic acid-induction measured for 5.5 min by turbidometric analysis; assay type: functional, cell-free
[40] = Antiaggregating activity in Homo sapiens (human) platelet rich plasma assessed as ristocetin-induced platelet aggregation at 4 uM incubated for 4 min prior to ristocetin-induction measured for 5.5 min by turbidometric analysis (reference value: 65 to 99%); assay type: functional
Platelet [41] = assay: Antiaggregating activity in Homo sapiens (human) platelet rich plasma assessed as inhibition of collagen-induced platelet aggregation at 10 uM incubated for 4 min prior to collagen-induction measured for 5.5 min by turbidometric analysis; assay type: functional, cell-free
Platelet [42] = assay: Antiaggregating activity in Homo sapiens (human) platelet rich plasma assessed as inhibition of adrenaline-induced platelet aggregation at 10 uM incubated for 4 min prior to adrenaline-induction measured for 5.5 min by turbidometric analysis; assay type: functional, cell-free
[43] = Antiaggregating activity in Homo sapiens (human) platelet rich plasma assessed as ristocetin-induced platelet aggregation at 10 uM incubated for 4 min prior to ristocetin-induction measured for 5.5 min by turbidometric analysis (reference value: 65 to 99%); assay type: functional
Platelet [44] = assay: Antiaggregating activity in Homo sapiens (human) platelet rich plasma assessed as inhibition of collagen-induced platelet aggregation at 5 uM incubated for 4 min prior to collagen-induction measured for 5.5 min by turbidometric analysis; assay type: functional, cell-free
Platelet [45] = assay: Antiaggregating activity in Homo sapiens (human) platelet rich plasma assessed as inhibition of arachidonic acid-induced platelet aggregation at 10 uM incubated for 4 min prior to arachidonic acid-induction measured for 5.5 min by turbidometric analysis; assay type: functional, cell-free
Platelet [46] = assay: Antiaggregating activity in Homo sapiens (human) platelet rich plasma assessed as inhibition of ADP-induced platelet aggregation at 10 uM incubated for 4 min prior to ADP-induction measured for 5.5 min by turbidometric analysis; assay type: functional, cell-free
Platelet [47] = assay: Antiaggregating activity in Homo sapiens (human) platelet rich plasma assessed as inhibition of collagen-induced platelet aggregation at 4 uM incubated for 4 min prior to collagen-induction measured for 5.5 min by turbidometric analysis; assay type: functional, cell-free
Platelet [48] = assay: Antiaggregating activity in Homo sapiens (human) platelet rich plasma assessed as inhibition of arachidonic acid-induced platelet aggregation at 4 uM incubated for 4 min prior to arachidonic acid-induction measured for 5.5 min by turbidometric analysis; assay type: functional, cell-free
Platelet [49] = assay: Antiaggregating activity in Homo sapiens (human) platelet rich plasma assessed as inhibition of adrenaline-induced platelet aggregation at 4 uM incubated for 4 min prior to adrenaline-induction measured for 5.5 min by turbidometric analysis; assay type: functional, cell-free
[50] = Antiaggregating activity in Homo sapiens (human) platelet rich plasma assessed as ristocetin-induced platelet aggregation at 5 uM incubated for 4 min prior to ristocetin-induction measured for 5.5 min by turbidometric analysis (reference value: 65 to 99%); assay type: functional

O=C(c1ccc[n+](Cc2ccccc2)c1)N1CCN(c2ccccc2Cl)CC1.[Cl-]
Activity [1]: 82%
Activity [2]: 80%
Activity [3]: 12%
inhibition (Platelet [4]): Active
Activity [5]: 53%
Activity [6]: 83%
Activity [7]: 75%
Activity [8]: 89%
Activity [9]: 67%
Activity [10]: 83%

Cl.O=C(c1cccnc1)N1CCN(c2ncccn2)CC1
Activity [2]: 72%
inhibition (Platelet [11]): Active
Activity [12]: 20%
Activity [13]: 40%
Activity [6]: 13%
inhibition (Platelet [14]): Active
Activity [15]: 58%
Activity [8]: 74%
inhibition (Platelet [16]): Active
inhibition (Platelet [17]): Active
inhibition (Platelet [18]): Active
Activity [19]: 76%
inhibition (Platelet [20]): Active
inhibition (Platelet [21]): Active
inhibition (Platelet [22]): Active

Cl.O=C(c1cccnc1)N1CCN(c2ccccc2Cl)CC1
inhibition (Platelet [23]): Active
Activity [24]: 23%
inhibition (Platelet [25]): Active
inhibition (Platelet [26]): Active
inhibition (Platelet [27]): Active
inhibition (Platelet [28]): Active
inhibition (Platelet [29]): Active
Activity [30]: 77%
Activity [31]: 71%
inhibition (Platelet [32]): Active
inhibition (Platelet [33]): Active
inhibition (Platelet [17]): Active
inhibition (Platelet [34]): Active
inhibition (Platelet [35]): Active
inhibition (Platelet [21]): Active

O=C(c1ccc[n+](Cc2ccc(F)cc2)c1)N1CCN(c2ccccc2Cl)CC1.[Cl-]
Activity [36]: 60%
Activity [37]: 40%
inhibition (Platelet [38]): Active
inhibition (Platelet [39]): Active
Activity [40]: 88%
inhibition (Platelet [41]): Active
inhibition (Platelet [42]): Active
Activity [43]: 24%
inhibition (Platelet [44]): Active
inhibition (Platelet [45]): Active
inhibition (Platelet [46]): Active
inhibition (Platelet [47]): Active
inhibition (Platelet [48]): Active
inhibition (Platelet [49]): Active
Activity [50]: 87%
